From ChEMBL document CHEMBL4411296, “Design and development of Isatin-triazole hydrazones as potential inhibitors of microtubule affinity-regulating kinase 4 for the therapeutic management of cell proliferation and metastasis” (Eur J Med Chem, 2019)

Tests used:
Format in all cases: functional
CCRF-CEM = assay: Growth inhibition of human CCRF-CEM cells assessed as cell growth at 10 uM after 48 hrs by sulforhodamine B assay relative to control; conditions: read-out: Activity
HL-60(TB) = assay: Growth inhibition of human HL-60(TB) cells assessed as cell growth at 10 uM after 48 hrs by sulforhodamine B assay relative to control; conditions: HL-60, 48 h, read-out: Activity
RPMI-8226 = assay: Growth inhibition of human RPMI8226 cells assessed as cell growth at 10 uM after 48 hrs by sulforhodamine B assay relative to control; conditions: RPMI-8226, 48 h, read-out: Activity
SR = assay: Growth inhibition of human SR cells assessed as cell growth at 10 uM after 48 hrs by sulforhodamine B assay relative to control; conditions: read-out: Activity
A549 = assay: Growth inhibition of human A549/ATCC cells assessed as cell growth at 10 uM after 48 hrs by sulforhodamine B assay relative to control; conditions: A549, 48 h, read-out: Activity
EKVX = assay: Growth inhibition of human EKVX cells assessed as cell growth at 10 uM after 48 hrs by sulforhodamine B assay relative to control; conditions: read-out: Activity
HOP-92 = assay: Growth inhibition of human HOP92 cells assessed as cell growth at 10 uM after 48 hrs by sulforhodamine B assay relative to control; conditions: HOP-92, 48 h, read-out: Activity
NCI-H460 = assay: Growth inhibition of human NCI-H460 cells assessed as cell growth at 10 uM after 48 hrs by sulforhodamine B assay relative to control; conditions: NCI-H460, 48 h, read-out: Activity
NCI-H522 = assay: Growth inhibition of human NCI-H522 cells assessed as cell growth at 10 uM after 48 hrs by sulforhodamine B assay relative to control; conditions: NCI-H522, 48 h, read-out: Activity
HCC 2998 = assay: Growth inhibition of human HCC2998 cells assessed as cell growth at 10 uM after 48 hrs by sulforhodamine B assay relative to control; conditions: HCC 2998, 48 h, read-out: Activity
HCT-116 = assay: Growth inhibition of human HCT116 cells assessed as cell growth at 10 uM after 48 hrs by sulforhodamine B assay relative to control; conditions: HCT-116, 48 h, read-out: Activity
KM12 = assay: Growth inhibition of human KM12 cells assessed as cell growth at 10 uM after 48 hrs by sulforhodamine B assay relative to control; conditions: KM12, 48 h, read-out: Activity
SF-268 = assay: Growth inhibition of human SF268 cells assessed as cell growth at 10 uM after 48 hrs by sulforhodamine B assay relative to control; conditions: SF-268, 48 h, read-out: Activity
SF-295 = assay: Growth inhibition of human SF295 cells assessed as cell growth at 10 uM after 48 hrs by sulforhodamine B assay relative to control; conditions: SF-295, 48 h, read-out: Activity
U-251 = assay: Growth inhibition of human U251 cells assessed as cell growth at 10 uM after 48 hrs by sulforhodamine B assay relative to control; conditions: U-251, 48 h, read-out: Activity
Malme-3M = assay: Growth inhibition of human MALME-3M cells assessed as cell growth at 10 uM after 48 hrs by sulforhodamine B assay relative to control; conditions: read-out: Activity
M14 = assay: Growth inhibition of human M14 cells assessed as cell growth at 10 uM after 48 hrs by sulforhodamine B assay relative to control; conditions: M14, 48 h, read-out: Activity
MDA-MB-435 = assay: Growth inhibition of human MDA-MB-435 cells assessed as cell growth at 10 uM after 48 hrs by sulforhodamine B assay relative to control; conditions: MDA-MB-435, 48 h, read-out: Activity
SK-MEL-2 = assay: Growth inhibition of human SK-MEL-2 cells assessed as cell growth at 10 uM after 48 hrs by sulforhodamine B assay relative to control; conditions: SK-MEL-2, 48 h, read-out: Activity
UACC-257 = assay: Growth inhibition of human UACC257 cells assessed as cell growth at 10 uM after 48 hrs by sulforhodamine B assay relative to control; conditions: UACC-257, 48 h, read-out: Activity
IGROV-1 = assay: Growth inhibition of human IGROV1 cells assessed as cell growth at 10 uM after 48 hrs by sulforhodamine B assay relative to control; conditions: IGROV-1, 48 h, read-out: Activity
OVCAR-4 = assay: Growth inhibition of human OVCAR4 cells assessed as cell growth at 10 uM after 48 hrs by sulforhodamine B assay relative to control; conditions: OVCAR-4, 48 h, read-out: Activity
OVCAR-8 = assay: Growth inhibition of human OVCAR8 cells assessed as cell growth at 10 uM after 48 hrs by sulforhodamine B assay relative to control; conditions: OVCAR-8, 48 h, read-out: Activity
NCI/ADR-RES = assay: Growth inhibition of human NCI/ADR-RES cells assessed as cell growth at 10 uM after 48 hrs by sulforhodamine B assay relative to control; conditions: read-out: Activity
786-0 = assay: Growth inhibition of human 786-0 cells assessed as cell growth at 10 uM after 48 hrs by sulforhodamine B assay relative to control; conditions: 786-0, 48 h, read-out: Activity
A498 = assay: Growth inhibition of human A498 cells assessed as cell growth at 10 uM after 48 hrs by sulforhodamine B assay relative to control; conditions: A498, 48 h, read-out: Activity
CAKI-1 = assay: Growth inhibition of human Caki1 cells assessed as cell growth at 10 uM after 48 hrs by sulforhodamine B assay relative to control; conditions: CAKI-1, 48 h, read-out: Activity
RXF 393 = assay: Growth inhibition of human RXF393 cells assessed as cell growth at 10 uM after 48 hrs by sulforhodamine B assay relative to control; conditions: RXF 393, 48 h, read-out: Activity
TK-10 = assay: Growth inhibition of human TK10 cells assessed as cell growth at 10 uM after 48 hrs by sulforhodamine B assay relative to control; conditions: TK-10, 48 h, read-out: Activity
UO-31 = assay: Growth inhibition of human UO31 cells assessed as cell growth at 10 uM after 48 hrs by sulforhodamine B assay relative to control; conditions: UO-31, 48 h, read-out: Activity
PC-3 = assay: Growth inhibition of human PC3 cells assessed as cell growth at 10 uM after 48 hrs by sulforhodamine B assay relative to control; conditions: PC-3, 48 h, read-out: Activity
DU-145 = assay: Growth inhibition of human DU145 cells assessed as cell growth at 10 uM after 48 hrs by sulforhodamine B assay relative to control; conditions: DU-145, 48 h, read-out: Activity
Hs-578T = assay: Growth inhibition of human Hs 578T cells assessed as cell growth at 10 uM after 48 hrs by sulforhodamine B assay relative to control; conditions: read-out: Activity
BT-549 = assay: Growth inhibition of human BT549 cells assessed as cell growth at 10 uM after 48 hrs by sulforhodamine B assay relative to control; conditions: BT-549, 48 h, read-out: Activity

Which growth at 10 µM (CCRF-CEM) does the source give for `COc1ccc(Cn2cc(C(=O)N/N=C3/C(=O)Nc4ccc(C)cc43)nn2)cc1` here?
The growth at 10 µM was 98.1%.

And the growth at 10 µM (HL-60(TB))?
The growth at 10 µM was 84.8%.

What about the growth at 10 µM (RPMI-8226) of the same compound?
Its growth at 10 µM is 105%.

And the growth at 10 µM (SR)?
Its growth at 10 µM is 86%.

And the growth at 10 µM (A549)?
The growth at 10 µM was 97.9%.

What about the growth at 10 µM (EKVX) of the same compound?
The growth at 10 µM was 108%.

What about the growth at 10 µM (HOP-92) of the same compound?
The growth at 10 µM was 121%.

What about the growth at 10 µM (NCI-H460) of the same compound?
The growth at 10 µM was 105%.

And the growth at 10 µM (NCI-H522)?
Its growth at 10 µM is 83.6%.

What about the growth at 10 µM (HCC 2998) of the same compound?
The growth at 10 µM was 99.9%.

What about the growth at 10 µM (HCT-116) of the same compound?
Its growth at 10 µM is 122%.

And the growth at 10 µM (KM12)?
Its growth at 10 µM is 95.4%.

What about the growth at 10 µM (SF-268) of the same compound?
Its growth at 10 µM is 94.1%.

What about the growth at 10 µM (SF-295) of the same compound?
The growth at 10 µM was 111%.

And the growth at 10 µM (U-251)?
The growth at 10 µM was 105%.

And the growth at 10 µM (Malme-3M)?
Its growth at 10 µM is 106%.

And the growth at 10 µM (M14)?
The growth at 10 µM was 109%.

And the growth at 10 µM (MDA-MB-435)?
The growth at 10 µM was 101%.

And the growth at 10 µM (SK-MEL-2)?
The growth at 10 µM was 92.9%.

What about the growth at 10 µM (UACC-257) of the same compound?
Its growth at 10 µM is 101%.

And the growth at 10 µM (IGROV-1)?
Its growth at 10 µM is 109%.

And the growth at 10 µM (OVCAR-4)?
The growth at 10 µM was 104%.

What about the growth at 10 µM (OVCAR-8) of the same compound?
Its growth at 10 µM is 104%.

And the growth at 10 µM (NCI/ADR-RES)?
The growth at 10 µM was 100%.

What about the growth at 10 µM (786-0) of the same compound?
Its growth at 10 µM is 96.3%.

What about the growth at 10 µM (A498) of the same compound?
Its growth at 10 µM is 91.6%.

And the growth at 10 µM (CAKI-1)?
The growth at 10 µM was 95.4%.

And the growth at 10 µM (RXF 393)?
Its growth at 10 µM is 117%.

What about the growth at 10 µM (TK-10) of the same compound?
The growth at 10 µM was 94.6%.

And the growth at 10 µM (UO-31)?
The growth at 10 µM was 95%.

And the growth at 10 µM (PC-3)?
The growth at 10 µM was 97.3%.

And the growth at 10 µM (DU-145)?
Its growth at 10 µM is 96%.

What about the growth at 10 µM (Hs-578T) of the same compound?
Its growth at 10 µM is 106%.

What about the growth at 10 µM (BT-549) of the same compound?
The growth at 10 µM was 112%.

`COc1ccc(Cn2cc(C(=O)N/N=C3/C(=O)Nc4ccc(F)cc43)nn2)cc1` was tested. Which growth at 10 µM (CCRF-CEM) did it give?
The growth at 10 µM was 95%.

And the growth at 10 µM (HL-60(TB))?
Its growth at 10 µM is 101%.

And the growth at 10 µM (RPMI-8226)?
Its growth at 10 µM is 99.1%.

And the growth at 10 µM (SR)?
Its growth at 10 µM is 102%.

What about the growth at 10 µM (A549) of the same compound?
Its growth at 10 µM is 94.2%.

What about the growth at 10 µM (EKVX) of the same compound?
Its growth at 10 µM is 106%.

And the growth at 10 µM (HOP-92)?
The growth at 10 µM was 98.8%.

What about the growth at 10 µM (NCI-H460) of the same compound?
The growth at 10 µM was 106%.

And the growth at 10 µM (NCI-H522)?
The growth at 10 µM was 86.1%.

And the growth at 10 µM (HCC 2998)?
The growth at 10 µM was 99.3%.

And the growth at 10 µM (HCT-116)?
The growth at 10 µM was 108%.

What about the growth at 10 µM (KM12) of the same compound?
The growth at 10 µM was 95.8%.

What about the growth at 10 µM (SF-268) of the same compound?
The growth at 10 µM was 103%.

What about the growth at 10 µM (SF-295) of the same compound?
Its growth at 10 µM is 95.4%.

And the growth at 10 µM (U-251)?
Its growth at 10 µM is 99.9%.

And the growth at 10 µM (Malme-3M)?
Its growth at 10 µM is 104%.

And the growth at 10 µM (M14)?
The growth at 10 µM was 111%.

And the growth at 10 µM (MDA-MB-435)?
Its growth at 10 µM is 103%.

What about the growth at 10 µM (SK-MEL-2) of the same compound?
Its growth at 10 µM is 109%.

What about the growth at 10 µM (UACC-257) of the same compound?
The growth at 10 µM was 91%.

And the growth at 10 µM (IGROV-1)?
The growth at 10 µM was 101%.

And the growth at 10 µM (OVCAR-4)?
The growth at 10 µM was 101%.

What about the growth at 10 µM (OVCAR-8) of the same compound?
The growth at 10 µM was 98.7%.

And the growth at 10 µM (NCI/ADR-RES)?
The growth at 10 µM was 96.7%.

What about the growth at 10 µM (786-0) of the same compound?
Its growth at 10 µM is 97.6%.

What about the growth at 10 µM (A498) of the same compound?
The growth at 10 µM was 83.4%.

And the growth at 10 µM (CAKI-1)?
The growth at 10 µM was 97.4%.

What about the growth at 10 µM (RXF 393) of the same compound?
The growth at 10 µM was 110%.

And the growth at 10 µM (TK-10)?
The growth at 10 µM was 102%.

And the growth at 10 µM (UO-31)?
The growth at 10 µM was 93.2%.

What about the growth at 10 µM (PC-3) of the same compound?
The growth at 10 µM was 98.4%.

And the growth at 10 µM (DU-145)?
Its growth at 10 µM is 103%.

What about the growth at 10 µM (Hs-578T) of the same compound?
Its growth at 10 µM is 111%.

What about the growth at 10 µM (BT-549) of the same compound?
Its growth at 10 µM is 116%.
